Assay results published in EP0168709A1, “Process for preparing chlorinated phosphorylmethylcarbonyl derivatives, and intermediates for their preparation” (BAYER AG, priority 1984, dated 1986).

Columns and labels:
Assay type in all cases: in vivo
Baum-wolle = assay: Pre-emergence test, greenhouse; conditions: 0,5 kg/ha, rated after three weeks vs untreated control, 0 % = no effect, 100 % = total destruction
Description: (§1) Pre-emergence-Test - Gewächshaus
(§2) Lösungsmittel: 5 Gewichtsteile Aceton
(§3) Emulgator: 1 Gewichtsteil Alkylarylpolyglykolether
(§4) Zur Herstellung einer zweckmäßigen Wirkstoffzubereitung vermischt man 1 Gewichtsteil Wirkstoff mit der angegebenen Menge Lösungsmittel, gibt die angegebene Menge Emulgator zu und verdünnt das Konzentrat mit Wasser auf die gewünschte Konzentration.
(§5) Samen der Testpflanzen werden in normalen Boden ausgesät und nach 24 Stunden mit der Wirkstoffzubereitung begossen. Dabei hält man die Wassermenge pro Flächeneinheit zweckmäßigerweise konstant. Die Wirkstoffkonzentration in der Zubereitung spielt keine Rolle, entscheidend ist nur die Aufwandmenge des Wirkstoffs pro Flächeneinheit. Nach drei Wochen wird der Schädigungsgrad der Pflanzen bonitiert in % Schädigung im Vergleich zur Entwicklung der unbehandelten Kontrolle. Es bedeuten: • O % = keine Wirkung (wie unbehandelte Kontrolle) 100 % = totale Vernichtung

Soja-bohnen = assay: Pre-emergence test, greenhouse; conditions: 0,5 kg/ha, rated after three weeks vs untreated control, 0 % = no effect, 100 % = total destruction
Description: as §1, §2, §3, §4, §5

Sorghum halepense = assay: Pre-emergence test, greenhouse; conditions: 0,5 kg/ha, rated after three weeks vs untreated control, 0 % = no effect, 100 % = total destruction
Description: as §1, §2, §3, §4, §5

Testpflanzen = assay: Pre-emergence test, greenhouse (overall statement); conditions: result in words
Description: as §1, §2, §3, §4, §5

CC(C)CC(=O)C(Cl)(Cl)P(=O)(OC(C)C)OC(C)C [Beispiel 1, O,O-Di-i-propyl-(1,1-dichlor-4-methyl-2-oxo-pentan)-phosphonsäureester]
Schädigungsgrad der Pflanzen (% Schädigung), Baum-wolle (Baum-wolle): 0%
Schädigungsgrad der Pflanzen (% Schädigung), Soja-bohnen (Soja-bohnen): 0%
Schädigungsgrad der Pflanzen (% Schädigung), Sorghum halepense (Sorghum halepense): 100%
Wirksamkeit (Testpflanzen): ausgezeichnete Wirksamkeit
